The values that follow come from BindingDB's records for PubMed 11160654 (Kitasato University, 2001).

Molecules are shown by their SMILES.

This test addresses Glutamate receptor 3 (Rattus norvegicus, UniProt P19492).

Chain of Glutamate receptor 3 (P19492 whole entry): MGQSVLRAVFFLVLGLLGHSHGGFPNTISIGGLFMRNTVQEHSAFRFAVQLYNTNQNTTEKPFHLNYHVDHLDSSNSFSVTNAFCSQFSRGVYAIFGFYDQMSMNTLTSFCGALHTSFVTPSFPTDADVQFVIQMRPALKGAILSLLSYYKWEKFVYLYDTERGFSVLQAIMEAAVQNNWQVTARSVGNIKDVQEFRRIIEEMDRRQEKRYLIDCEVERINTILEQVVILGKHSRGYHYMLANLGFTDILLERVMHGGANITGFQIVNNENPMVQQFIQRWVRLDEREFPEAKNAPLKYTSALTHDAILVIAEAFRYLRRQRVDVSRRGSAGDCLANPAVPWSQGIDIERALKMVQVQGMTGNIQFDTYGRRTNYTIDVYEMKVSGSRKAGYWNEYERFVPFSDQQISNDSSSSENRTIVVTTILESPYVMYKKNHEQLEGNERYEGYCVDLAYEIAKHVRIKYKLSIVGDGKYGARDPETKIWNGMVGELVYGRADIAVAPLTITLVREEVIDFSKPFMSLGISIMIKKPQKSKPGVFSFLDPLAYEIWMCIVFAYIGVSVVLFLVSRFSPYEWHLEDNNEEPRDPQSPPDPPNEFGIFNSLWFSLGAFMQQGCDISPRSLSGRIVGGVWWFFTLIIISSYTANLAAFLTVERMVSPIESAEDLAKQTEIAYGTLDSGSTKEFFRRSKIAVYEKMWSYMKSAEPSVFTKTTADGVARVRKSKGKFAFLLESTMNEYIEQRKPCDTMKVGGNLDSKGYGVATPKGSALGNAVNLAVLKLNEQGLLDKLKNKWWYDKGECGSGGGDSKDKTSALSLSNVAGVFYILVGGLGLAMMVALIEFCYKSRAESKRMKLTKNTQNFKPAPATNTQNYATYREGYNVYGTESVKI

In general, Ki refers to a measure of affinity in units of concentration, obtained from inhibition or displacement. A low value points to a stronger hold on the target. The compound `CN[C@H](CC(=O)O)C(=O)O` [NMDA] gave a Ki of 3.9 µM.
